“Also recorded” adds a separate entry of the source.
Assays:
COVID-19 patients = details: treatment of COVID-19; cited from earlier work
[1] = test system: platelets of healthy donors or severe COVID-19 patients; assay: Analysis of Ca2+ transients (Indo-1 AM, FACS); format: cell-based, human; details: 10 µM ivacaftor pretreatment; ADP, TRAP6 or PAF; healthy donors and severe COVID-19; except TRAP6 stimulated healthy platelets
Procedure: Analysis of Ca2+ transients: Platelet rich plasma (PRP) was stained with anti-CD42b, and loaded with Indo-1 AM (Invitrogen, Waltham, MA, USA)) for 30 min at 37° C. together in the presence of either vehicle (DMSO, 10 µM ivacaftor or 5 µM forskolin) under mild agitation. Stained PRP was diluted in Tyrode's Buffer (134 mM NaCl, 12 mM NaHCO3, 2.90 mM KCl, 0.34 mM Na2HPO4, 3 mM MgCl2, 2 mM CaCI2, 20 mM HEPES, 5 mM Glucose, pH 7.4.) complemented with heparin and […] before the fluorescence ratio of Ca2+-bound Indo-1 (405 nm) to Ca2+-unbound Indo-1 (530 nm) of CD42b+ platelets was monitored on a FACSymphony™ A5 (BD Biosciences, Franklin Lakes, NJ, USA) equipped with a ultraviolet (355 nm), violet (405 nm), blue (488 nm), yellow (561 nm), and red (637 nm) solid-state laser. After basal Ca2+ concentrations were monitored for 30 s, platelets were stimulated with either 5 μM PAF (Tocris Bioscience (Bristol, England, GB)), 50 μM ADP (Sigma-Aldrich, St. Louis, MO, USA) or 50 μM TRAP-6 (purchased from Cayman Chemicals (Ann Arbor, MI, USA)) before changes in intracellular Ca2+ concentration ([Ca2+] i) were monitored for additional 2 min. Results are expressed in arbitrary units as areaunder the curve (AUC).

[2] = test system: platelets in whole blood of COVID-19 patients and healthy donors; assay: Vascular Injury Flow Assay (platelet adhesion on collagen IV); format: cell-based, human
Procedure: Vascular Injury Flow Assay: Citrated blood was stained with anti-CD42b ((GPlb) Allophycocyanin (APC, clone REA 185, Miltenyi Biotec, Bergisch Gladbach, Germany)) and treated with either vehicle (DMSO), 10 μM ivacaftor or 5 µM forskolin for 15 min at 37° C. before the microfluidic flow assay was performed as previously described2. In brief, pretreated whole blood was diluted 1:4 with modified Tyrode's Buffer (134 mM NaCl, 12 mM NaHCO3, 2.90 mM KCl, 0.34 mM Na2HPO4, 3 mM MgCl2, 2.1 mM CaCl2), 20 mM HEPES, 5 mM Glucose, 1 g/l BSA, adjusted to a pH of 7.4.) immediately before perfusion with a flow rate of 20 mL/h for 5 min through collagen IV coated microchannel flow chambers (6 Channel μ-Slide VI 0.4, Ibidi, Martinsried, Germany). After perfusion, cells were fixed with 4% PFA for 30 min and washed thoroughly with PBS. Five randomly selected regions of interest (ROI) for each experimental condition were imaged with an Invitrogen™ EVOS™ fluorescent microscope and quantification of the total CD42b+ covered area was carried out with ImageJ (Version […] by the US National Institutes of Health and the LOCI, University of Wisconsin).

[3] = test system: platelets isolated from blood of healthy donors; assay: Flow cytometry of surface expression of activation markers CD62p and CD63 on platelets; format: cell-based, human; details: platelets pre-treated 24 h with 10 µM ivacaftor or 5 µM forskolin prior to 50 µM ADP, 50 µM TRAP6 or 5 µM PAF
Procedure: Flow Cytometry: Blood samples were collected and stained as previously described3. In brief, blood was directly stained in dilution buffer (NaCl 137 mM, KCl 2.7 mM, MgCl2 1 mM, 4-(2-hydroxyethyl)-1-piperazineethanesulfonic acid (HEPES) 20 mM, glucose 5.6 mM, bovine serum albumin 1 g/l, pH 7.4.) containing mouse anti-human anti-CD42b (GPlb) Phycoerythrin (PE, clone HIP1), anti-CD62p (P-selectin) Phycoerythrin-Cyanine 7 (PE/Cy7, clone AK4), anti-CD63 (GP53) and Brilliant Violet 421 (clone H5C6), all from BioLegend (San Diego, CA, USA), before cells were fixed with 2 mL of 0.2% PFA in PBS. In order to analyze isolated platelets, total citrate blood was centrifuged at 150 g for 15 min to separate platelet rich plasma (PRP) from blood cells. PRP was collected and centrifuged again at 1000 g for 15 min. Platelets were subsequently resuspended in 10% CPDA buffer in PBS (Sigma-Aldrich (St. Louis, MO, USA)) and incubated for 24 h in the presence of either vehicle (DMSO, Sigma-Aldrich (St. Louis, MO, USA)), 10 µM ivacaftor (Cayman Chemicals, Ann Arbor, MI, USA)) or 5 µM forskolin (Fisher Scientific (Pittsburgh, PA, USA)) before staining was applied as described above. […] All measurements were analyzed with FlowJo (version 8, Tree Star, Inc., Ashland, OR, USA).

[4] = test system: platelets from COVID-19 patients and healthy donors (hirudin whole blood); assay: Multiple Electrode Aggregometry (Multiplate analyzer); format: cell-based, human; details: 10 µM ivacaftor 15 min, ADP, TRAP6 or PAF, significance only for individual agonist-platelet combinations
Procedure: Multiple Electrode Aggregometry: Whole blood impedance measurement using Multiple Electrode Aggregometry (MEA) was performed on the Multiplate® analyzer by Roche (Basel, Switzerland)). Hirudin whole blood samples were treated with either vehicle (DMSO), 10 µM ivacaftor or 5 μM forskolin for 15 min at 37° C.

Compound	reduction in thromboembolic events (COVID-19 patients)	agonist-induced [Ca2+]i increase (AUC) [1]	agonist-induced platelet adhesion (CD42b+ total area) ([2]; 10 μM ivacaftor 15 min, ADP, TRAP-6 or PAF, significance for most agonist-platelet combinations)	adhesion of both unstimulated and stimulated platelets ([2]; whole blood of severe COVID-19 patients)	agonist-induced upregulation of CD62p and CD63 (platelet activation) [3]	agonist-induced aggregation of platelets (AUC) [4]	agonist-induced aggregation of platelets (AUC) ([4]; listed as Ivacaftor)
CC(=O)Oc1ccccc1C(=O)O [aspirin]	failed to yield a significant reduction; also recorded: failed to show a significant reduction						
COc1ccc(-n2nc(C(N)=O)c3c2C(=O)N(c2ccc(N4CCCCC4=O)cc2)CC3)cc1 [apixaban]	failed to yield a significant reduction						
CC(C)(C)c1cc(C(C)(C)C)c(NC(=O)c2c[nH]c3ccccc3c2=O)cc1O [ivacaftor, N-(5-hydroxy-15 2,4-ditert-butyl-phenyl)-4-oxo-1 H-quinoline-3-carboxamide]		attenuates; also recorded: significant reduction; also recorded: significantly attenuated	reduces; also recorded: general trend to reduce; also recorded: attenuates	reduced	prevented; also recorded: attenuates; also recorded: normalized	reduces; also recorded: general trend to reduce; also recorded: attenuates	significantly attenuates

Reference: US20250177371A1, “CFTR MODULATORS FOR THE TREATMENT OF VASCULAR DISEASE” (priority 2022, published 2025)
